{"source": "patent US20110251135A1", "about": "“INHIBITORS OF PERITONEAL SEEDING OF CANCER CELLS” (University of Utah Research Foundation, priority 2008, published 2011)", "key": {"[1]": {"test_system": "HCT-116 xenografts", "assay": "Subcutaneous colon cancer xenograft in athymic mice", "assay_type": "in vivo, mouse", "details": "HCT-116 subcutaneous xenografts; BAY 11-7085 1 mg/kg twice weekly for 28 days vs DMSO", "protocol": "DLD-1, HCT-116, and HT-29 cells were cultured for 6 days in soft agar in the presence of DMSO (control), 10 μM BAY 11-7082, or 10 μM BAY 11-7085. The data points represent the means of colony counts per field (20×) performed in 5 different regions of the culture dishes. The data shown represent a typical result of two separate experiments. FIG. 2B and FIG. 2C are graphs that show athymic mice received subcutaneous injections of HT-29 (FIG. B) or HCT-116 (FIG. C) cells, followed by […] of BAY 11-7085 (dark bars) or DMSO (white bars) intraperitoneally twice weekly. The bars represent the 25-75% ranges of the tumor volumes and the horizontal lines in the bars are the medians. Using the Kruskal-Wallace statistical test to compare the median tumor volumes between BAY 11-7085 and DMSO yielded a p-value of 0.005 for HT-29 cells but >0.05 for HCT-116 cells.\nHT-29 and HCT-116 cells were harvested in 0.25% trypsin-PBS-EDTA, washed once in media and PBS, and resuspended in PBS at 1 million cells per 200 μL. One million cells were injected either subcutaneously in the backs or intraperitoneally in 5 week old female nu/nu athymic mice (Charles River Labs). For the mice with subcutaneous tumors, the tumors were allowed to establish themselves for 10 days after which they were randomized to BAY 11-7085 or DMSO. For the mice with intraperitoneal tumors, the mice received DMSO or BAY 11-7085 (5 mg/kg) 24 hours before the cancer cells were injected intraperitoneally. […] Subcutaneous tumor sizes were determined by measuring the length and width with calipers. These studies were approved by the University of Utah Institutional Review Board and Institutional Animal Care and Use Committee and performed in the Animal Resource Center. Mice were euthanized when they experienced a greater than 10% loss in body weight or if they appeared ill. Post-mortem examinations included sectioning of kidney, lung, and liver tissues which were stained with hematoxylin and eosin followed by examination for tissue toxicity/damage by an experienced mouse pathologist (E.J.E.) who was blinded to therapy.\nHCT-116 and HT-29 cell lines were used to generate subcutaneous tumors in athymic female mice. The mice were subsequently randomized to be treated with vehicle (DMSO) alone or BAY 11-7085 […] twice weekly for 28 days."}, "[2]": {"test_system": "adherent HT-29 cells", "assay": "Annexin V-FITC apoptosis assay, adherent cells", "assay_type": "cell-based, human", "from_the_text": "FIG. 3 is a group of graphs that show NF-κB inhibitors cause apoptosis of colon cancer cells. […] The data points represent the average percent of annexin V-positive, propidium iodide-negative cells (of the total cells counted) from triplicate experiments. The error bars represent the standard error of the means. […] The results shown are a graphic representation of individual flow cytometry results expressed as the percentage of cells that were annexin V-positive of those that excluded propidium iodide. […] An immunoblot of the lysates for cleaved PARP was performed. Each lane represents equal total protein concentrations. […] The cells were allowed to adhere to plastic dishes for 1 hour after which they were washed gently in PBS and stained with crystal violet. The crystal violet stained cells were solubilized in deoxycholate and the absorbance detected in a spectrophotometer at 590 nm. The adherent cells were expressed as a fraction of the controls. Each data point represents the average of triplicate experiments and the error bars the standard errors of the means.\nThe data points represent the means of triplicate experiments and the error bars the standard errors of the means. […] The percent of apoptotic cells was then determined by the annexin V assay. […] The results shown are typical of two separate experiments. […] Immunoblots were performed for c-IAP-2, TRAF-1, TRAF-2, and FLIP. All lanes contain equal total protein.\nSingle cell suspensions were plated at 100,000 cells per well in 24-well plates in media containing DMSO, BAY 11-7082, BAY 11-7085, or MG-132 for 8-24 hours in an incubator. Alternatively, DMSO, BAY 11-7082, BAY 11-7085, or MG-132 were added to cells that were confluent and adherent for several days. The nonadherent cells were aspirated off with the media and spun for 3 minutes at 2,000 rpm in 15 mL polypropylene tubes. The adherent cells were washed twice with PBS, dispersed in trypsin, and spun down for 3 minutes at 2,000 rpm in 15 mL polypropylene tubes. The nonadherent and adherent cells were resuspended in 1× binding buffer (10 mM HEPES/NaOH, pH 7.4, 140 mM NaCl, and 2.5 mM CaCl2) to a final concentration of 10^6 cells/mL. 100 μL of the cell solution were transferred to a 5 mL culture tube and incubated with 5 μL of annexin V-FITC-conjugated monoclonal antibody (Pharmingen) and 10 μl, of propidium iodide (from a 50 μg/mL stock solution made in PBS) in the dark at 25° C. for 15 minutes. 400 μL of binding buffer was added to each tube and the cells were analyzed by flow cytometry immediately. The percent of apoptosis was determined as the percent of annexin V-positive, propidium iodide-negative cells of the total cells counted."}, "[3]": {"test_system": "HCT-116 cells", "assay": "Intraabdominal seeding model, intraperitoneal injection of colon cancer cells into athymic mice (21 days)", "assay_type": "in vivo, mouse", "details": "HCT-116 IP in athymic mice; after 21 days; regardless of vehicle or BAY 11-7085", "from_the_text": "FIG. 6 is a group of photographs showing an intraabdominal seeding model. FIGS. 6A, B, C show tumor implants of the liver of three athymic mice 21 days after receiving intraperitoneal injections of HT-29 cells. The mice were pretreated and treated for a total of 21 days with DMSO twice weekly. […] The mouse was pretreated and treated for a total of 21 days with DMSO twice weekly. FIG. 6E is a micrograph showing tumor invasion through the liver capsule. This section was obtained from the tumor implant from the mouse in FIG. 6A. […] FIG. 6G, (liver), FIG. 6H, (abdominal wall), and FIG. 6I, (intestinal) show tumor implants in three athymic mice 21 days after receiving intraabdominal injections of HCT-116 cells. All of the mice were treated with 5 mg/kg of BAY 11-7085 twice weekly.\nHT-29 and HCT-116 cells were harvested in 0.25% trypsin-PBS-EDTA, washed once in media and PBS, and resuspended in PBS at 1 million cells per 200 μL. […] Subcutaneous tumor sizes were determined by measuring the length and width with calipers. […]\nDuring colorectal cancer surgery, seeding of the peritoneal cavity by tumor cells with tumor cell implantation of the peritoneal surfaces can occur. Seeding results from the transient suspension of cancer cells, through a loss of adhesion either naturally ro because of surgical displacement, followed by readhesion to other tissues. […]"}, "[4]": {"test_system": "JNK/SAPK and p38", "details": "Pierce et al., J Biol Chem 272:21096-103, 1997; cited from earlier work"}}, "note": "“Also recorded” adds a separate entry of the source.", "data": [{"smiles": "CC(C)(C)c1ccc(S(=O)(=O)/C=C/C#N)cc1", "note": "[BAY 11-7085, (2E)-3-[4-(tertiarybutylphenyl)sulfonyl]-2-propenenitrile]", "values": [{"measurement": "tumor volumes vs control group", "setting": "[1]", "result": "no statistically significant overall difference in the tumor volumes"}, {"measurement": "apoptotic cells among cells that remained adherent", "setting": "[2]; HT-29 treated with increasing concentrations of BAY 11-7085, adherent fraction", "result": "only a minority of the adherent cells was apoptotic"}, {"measurement": "apoptotic cells among cells that became nonadherent", "setting": "[2]; HT-29 treated with increasing concentrations of BAY 11-7085, nonadherent fraction", "result": "the majority of nonadherent cells were apoptotic; also recorded: predominantly apoptotic"}, {"measurement": "level of apoptosis (annexin V-positive, propidium iodide-negative cells)", "setting": "[2]; adherent HT-29, 24 hours, BAY compounds at doses up to 20, MG-132 20 μM", "result": "relatively greater for MG-132 than BAY 11-7085; also recorded: caused an increase in the level of apoptosis"}, {"measurement": "apoptosis of adherent HT-29 cell monolayers", "setting": "[2]; even the highest doses (10-100 μM), compared with transiently suspended cells", "result": "only a relatively small degree of apoptosis"}, {"measurement": "metastases of parietal and visceral peritoneum", "setting": "[3]", "result": "clear evidence of metastases"}, {"measurement": "activation of JNK/SAPK and p38", "setting": "[4]", "result": "activate JNK/SAPK and p38"}]}]}
